Reference: patent publication US20130280212A1, “INHIBITORS OF CYTOCHROME P450” (GILEAD SCIENCES, INC, priority 2010, published 2013)
Where two headings read alike, the source gives them in different places.

Biological target: T1, CYP3A4 (Homo sapiens, UniProt P08684)
T1 construct: Pooled (n≧15 donors) human hepatic microsomal fraction was obtained from BD-Gentest; tissue BD-Gentest (Woburn, Mass.); host or cells: pooled human liver microsomes (n≧15 donors)
Test: CYP3A inhibition assay in pooled human hepatic microsomal fraction (midazolam 1-hydroxylase and testosterone 6β-hydroxylase activities)
Format: biochemical
Details: human hepatic microsomes
Description: The initial mobile phase consisted of 94.9% water, 0.1% formic acid, and 5% acetonitrile (v/v/v) pumped at 0.5 mL/min. After 0.5 min the acetonitrile concentration was increased to 30% over 0.5 min. The acetonitrile concentration was then further increased to 100% over 0.5 min and held for 1.3 min, after which the column was re equilibrated at the initial conditions for 1.2 min. Rates of metabolite formation were determined from standard curves using PAR determined with authentic metabolite standards.

[1] = probe activity midazolam 1-hydroxylase, read-out: CYP3A4 IC50 (μM) (midazolam)
[2] = probe activity testosterone 6β-hydroxylase, substrate 50 μM, read-out: CYP3A4 IC50 (μM) (testosterone)

T1 sequence (P08684 2-503): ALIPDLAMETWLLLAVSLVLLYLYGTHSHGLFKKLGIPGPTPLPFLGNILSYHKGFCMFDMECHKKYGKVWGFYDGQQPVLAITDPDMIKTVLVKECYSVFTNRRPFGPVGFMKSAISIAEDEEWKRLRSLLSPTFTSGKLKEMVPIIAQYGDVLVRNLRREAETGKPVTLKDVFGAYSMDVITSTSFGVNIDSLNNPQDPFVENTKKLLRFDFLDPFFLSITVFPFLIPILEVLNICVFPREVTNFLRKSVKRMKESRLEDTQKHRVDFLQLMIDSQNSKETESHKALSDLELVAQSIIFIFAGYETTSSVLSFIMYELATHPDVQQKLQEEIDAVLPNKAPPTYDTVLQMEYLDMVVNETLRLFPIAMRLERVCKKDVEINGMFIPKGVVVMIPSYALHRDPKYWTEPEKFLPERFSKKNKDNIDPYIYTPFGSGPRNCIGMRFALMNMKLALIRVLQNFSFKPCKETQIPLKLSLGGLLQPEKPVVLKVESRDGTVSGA

Row | SMILES | IC50 [1] | IC50 [2]
1 | C[C@H]1CC[C@H](C(=O)N[C@H](CC[C@H](Cc2ccccc2)NC(=O)OCc2cncs2)Cc2ccccc2)CC1 [Compound 3] | 0.12 µM | 0.27 µM
2 | CC(C)[C@H]1CC[C@H](C(=O)N[C@H](CC[C@H](Cc2ccccc2)NC(=O)OCc2cncs2)Cc2ccccc2)CC1 [Compound 4] | < 0.1 µM | 3.4 µM
3 | O=C(N[C@H](CC[C@H](Cc1ccccc1)NC(=O)[C@H]1CC[C@H](c2ccc(Cl)cc2)CC1)Cc1ccccc1)OCc1cncs1 [Compound 5] | 1.8 µM | > 25 µM
4 | CC[C@@H](C(=O)N[C@H](CC[C@H](Cc1ccccc1)NC(=O)OCc1cncs1)Cc1ccccc1)c1ccccc1 [Compound 6] | 0.51 µM | 1.4 µM
5 | CC[C@H](C)C(=O)N[C@H](CC[C@H](Cc1ccccc1)NC(=O)OCc1cncs1)Cc1ccccc1 [Compound 7] | < 0.1 µM | 0.36 µM
6 | CC(C)OC(=O)N[C@H](CC[C@H](Cc1ccccc1)NC(=O)OCc1cncs1)Cc1ccccc1 [Compound 8] | < 0.1 µM | 0.38 µM
7 | CCC(C)OC(=O)N[C@H](CC[C@H](Cc1ccccc1)NC(=O)OCc1cncs1)Cc1ccccc1 (some centres unmarked) [Compound 9] | 0.13 µM | 0.43 µM
8 | CCC(CC)OC(=O)N[C@H](CC[C@H](Cc1ccccc1)NC(=O)OCc1cncs1)Cc1ccccc1 [Compound 10] | 0.2 µM | 0.5 µM
9 | CC(C)CC(C)OC(=O)N[C@H](CC[C@H](Cc1ccccc1)NC(=O)OCc1cncs1)Cc1ccccc1 (some centres unmarked) [Compound 11] | 0.25 µM | 0.71 µM
10 | CC(C)CC(OC(=O)N[C@H](CC[C@H](Cc1ccccc1)NC(=O)OCc1cncs1)Cc1ccccc1)C(C)C (some centres unmarked) [Compound 12] | 0.38 µM | 0.4 µM
11 | CC(CC(C)(C)C)OC(=O)N[C@H](CC[C@H](Cc1ccccc1)NC(=O)OCc1cncs1)Cc1ccccc1 (some centres unmarked) [Compound 13] | 0.4 µM | 0.54 µM
12 | CC(C)NC(=O)N[C@H](CC[C@H](Cc1ccccc1)NC(=O)OCc1cncs1)Cc1ccccc1 [Compound 14] | < 0.1 µM | 0.27 µM
13 | CCC(C)NC(=O)N[C@H](CC[C@H](Cc1ccccc1)NC(=O)OCc1cncs1)Cc1ccccc1 (some centres unmarked) [Compound 15] | < 0.1 µM | 0.25 µM
14 | CCC(CC)NC(=O)N[C@H](CC[C@H](Cc1ccccc1)NC(=O)OCc1cncs1)Cc1ccccc1 [Compound 16] | < 0.1 µM | 0.41 µM
15 | CC(C)S(=O)(=O)N[C@H](CC[C@H](Cc1ccccc1)NC(=O)OCc1cncs1)Cc1ccccc1 [Compound 17] | < 0.1 µM | 0.32 µM
16 | CCC(C)S(=O)(=O)N[C@H](CC[C@H](Cc1ccccc1)NC(=O)OCc1cncs1)Cc1ccccc1 (some centres unmarked) [Compound 18] | < 0.1 µM | 0.34 µM
